The numbers were not newly measured in EP3932402A1, “ADAM17 INHIBITORS FOR USE IN THE PREVENTION AND/OR TREATMENT OF COVID-19” (Max-Delbrück-Centrum für Molekulare Medizin in der …, priority 2020, dated 2022), which cites them from elsewhere.

The target in data set [1] is T1, ADAM17 (Homo sapiens, UniProt P78536).
T1 construct: host or cells: patients (endogenous enzyme)
Conditions: Moss et al., 2008.

The subject of data set [2] is ADAM17, ADAM10. Conditions: in combination with trastuzumab; Newton et al.

T1 sequence (P78536 215-824): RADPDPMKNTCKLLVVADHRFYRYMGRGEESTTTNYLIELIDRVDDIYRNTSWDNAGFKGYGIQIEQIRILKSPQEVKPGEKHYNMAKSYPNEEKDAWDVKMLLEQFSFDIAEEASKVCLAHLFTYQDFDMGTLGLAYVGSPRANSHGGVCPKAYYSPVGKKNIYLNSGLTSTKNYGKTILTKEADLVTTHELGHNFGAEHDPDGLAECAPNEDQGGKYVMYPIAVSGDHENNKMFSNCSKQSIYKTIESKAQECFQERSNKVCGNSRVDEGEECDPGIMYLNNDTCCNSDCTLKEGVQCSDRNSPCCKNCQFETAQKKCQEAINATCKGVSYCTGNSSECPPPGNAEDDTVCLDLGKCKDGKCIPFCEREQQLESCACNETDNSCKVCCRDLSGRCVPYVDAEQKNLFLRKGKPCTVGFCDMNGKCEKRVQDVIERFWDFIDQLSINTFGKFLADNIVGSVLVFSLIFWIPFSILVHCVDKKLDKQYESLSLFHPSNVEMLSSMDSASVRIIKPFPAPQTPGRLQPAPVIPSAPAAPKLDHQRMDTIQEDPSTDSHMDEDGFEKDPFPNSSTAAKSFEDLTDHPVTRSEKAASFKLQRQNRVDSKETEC

Regarding `CON(Cc1ccc(F)cc1)C(=O)C=C1OC(C)(C)OC1=O` [BMS-561392, Acetamide, 2-(2,2-dimethyl-5-oxo-1,3-dioxolan-4-ylidene)-N-((4-fluorophenyl)methyl)-N-methoxy-], the “reason for discontinued development” value in data set [1] is on record as “concerns over liver toxicity”. Moreover, the “proof of concept in sepsis and rheumatoid arthritis” value in data set [1] (clinical Phase II) is “beneficial effects”.
On to `COC(=O)N1CC2(CC2)C[C@H](C(=O)NO)[C@H]1C(=O)N1CCN(c2ccccc2)CC1` [INCB7839, methyl (6S,7S)-7-(hydroxycarbamoyl)-6-(4-phenylpiperazine-1-carbonyl)-5-azaspiro[2.5]octane-5-carboxylate], for which, for the setting “adult patients”, the pro-coagulant effects entry is on record as “observed in some adult patients”. Also, under “solid tumors and breast cancer”, the “deep venous thrombosis, incidence” value is recorded as 9/41; the dose limiting toxicity result is “deep venous thrombosis”; the “severity of adverse effects” value is reported as “mild to moderate”. For the same compound, in data set [2], the HER2 cleavage result is given as “markedly reduced” and the clinical response rate result is reported as “markedly reduced”.
